# Laboratory results: US20250375401A1, “PHARMACEUTICAL COMPOSITION CONTAINING DEMETHYLZEYLASTERAL FOR PREVENTION OR TREATMENT OF DISEASES CAUSED BY MUSCLE LOSS” (SEOUL NATIONAL UNIVERSITY R&DB FOUNDATION, priority 2022, published 2025)
# Columns and labels:
# myoblast cell line C2C12 [1] = test: Myocyte differentiation in dexamethasone-induced cell model (total MHC immunofluorescence and DAPI staining); type: cell-based, mouse; conditions: C2C12 myotubes, 0.5 or 1 μM demethylzeylasteral with 100 μM dexamethasone
# Experimental: dexamethasone-induced cell model, the following experiments were performed. Specifically, myoblast cell line C2C12 from mouse were seeded in 6 cm dishes and incubated for 72 hours. Then, the media were replaced to differentiation media to differentiate myoblasts into myotubes for 48 hours. After myotubes were formed, they were teated with 100 μM dexamethasone and 0.5, or 1 μM demethylzeylasteral for 72 hours while replacing the differentiation media every 24 hours. The differentiation media were suctioned off, and the dishes in which the cells were incubated were washed three times with PBS. Then, the cells were fixed with 4% formaldehyde, permeabilized with PBS containing 0.1% Triton-X 100 for 10 minutes, and blocked with PBS containing 3% bovine serum albumin for 1 hour. The cells were treated with total MHC antibodies, a biomarker for myocyte differentiation, followed by Alexa 488-conjugated secondary antibodies, and teated with DAPI for staining nuclei. The ratio of MHC+ nuclei to the total number of nuclei was calculated and plotted as a differentiation index, and the total number of nuclei stained with DAPI was also counted and plotted.
# myoblast cell line C2C12 [2] = test: Western blot of total MHC and MuRF-1 in dexamethasone-induced cell model; type: cell-based, mouse; conditions: C2C12 myotubes, 0.5 or 1 μM demethylzeylasteral with 100 μM dexamethasone, 48 hours, western blot (FIG. 5)
# Experimental: Specifically, myoblast cell line C2C12 from mouse were seeded in 6 cm dishes and incubated for 72 hours.
compound,measurement,setting,value
"C[C@@]1(C(=O)O)CC[C@]2(C)CC[C@]3(C)C4=CC(=O)c5c(cc(O)c(O)c5C=O)[C@]4(C)CC[C@@]3(C)[C@@H]2C1 [demethylzeylasteral, (2R,4aS,6aR,6aS,14aS,14bR)-9-formyl-10,11-dihydroxy-2,4a,6a,6a,14a-pentamethyl-8-oxo-1,3,4,5,6,13,14,14b-octahydropicene-2-carboxylic acid]",myocyte differentiation index (total number of MHC+ nuclei divided by total number of nuclei),myoblast cell line C2C12 [1]; 72 hours (FIG. 3),significantly increased and restored
same,number of nuclei (DAPI staining),myoblast cell line C2C12 [1]; 72 hours (FIG. 4),significantly increased
same,expression of MuRF-1 (biomarker for muscle degradation),myoblast cell line C2C12 [2],significantly reduced expression
same,expression of total MHC (biomarker for myocyte differentiation in late stage),myoblast cell line C2C12 [2],significantly increased expression
